Earlier results on one molecule are cited in US10314922B2, “Trimaleimide linkers and uses thereof” (NewBio Therapeutics, Inc., priority 2015, dated 2019).

The subject of this series is human carcinoma lines.

Usually IC50 stands for the concentration that gives 50% inhibition. As for `COc1cccc2c1C(=O)c1c(O)c3c(c(O)c1C2=O)C[C@@](O)(C(=O)CO)C[C@@H]3O[C@H]1C[C@H](N)[C@H](O)[C@H](C)O1` [doxorubicin, Doxorubicin], the IC50 is 0.1 to 0.2 µM.
